Laboratory results published in US11168083B2, “Inhibitors of Plasma Kallikrein and uses thereof” (Takeda Pharmaceutical Company Limited, priority 2017, dated 2021).
Read-outs that look alike come from different tables or passages of the source.

How the values were obtained:
Type in all cases: biochemical
[1] = molecular target: human activated kallikrein enzyme (Homo sapiens (Human), UniProt P03952); experiment: Inhibition of human activated kallikrein enzyme, fluorogenic peptide substrate assay (two formats); details: read-out: pKal EC50
Sequence of human activated kallikrein enzyme (P03952 391-638): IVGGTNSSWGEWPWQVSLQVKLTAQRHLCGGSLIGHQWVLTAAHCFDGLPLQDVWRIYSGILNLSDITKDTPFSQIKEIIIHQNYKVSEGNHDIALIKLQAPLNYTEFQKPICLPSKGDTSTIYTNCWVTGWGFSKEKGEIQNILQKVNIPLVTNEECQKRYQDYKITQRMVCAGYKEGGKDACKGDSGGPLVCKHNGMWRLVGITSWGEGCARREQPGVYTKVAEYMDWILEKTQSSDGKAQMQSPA
Sequence of human activated kallikrein enzyme (P03952 20-390 partner): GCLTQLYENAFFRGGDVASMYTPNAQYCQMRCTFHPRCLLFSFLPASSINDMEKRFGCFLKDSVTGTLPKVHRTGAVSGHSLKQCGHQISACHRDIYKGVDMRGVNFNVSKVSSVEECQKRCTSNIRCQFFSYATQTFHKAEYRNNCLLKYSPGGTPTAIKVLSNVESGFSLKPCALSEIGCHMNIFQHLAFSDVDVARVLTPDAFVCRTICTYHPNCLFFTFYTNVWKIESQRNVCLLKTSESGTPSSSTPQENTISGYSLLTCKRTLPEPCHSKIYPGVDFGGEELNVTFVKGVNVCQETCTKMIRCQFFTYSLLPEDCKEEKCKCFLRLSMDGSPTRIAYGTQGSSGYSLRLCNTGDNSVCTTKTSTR
How it was run: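 Fluorogenic Pro-Phe-Arg-AMC substrate (300 uM) in 20 mM Tris pH 7.5, 150 mM NaCl, 1 mM EDTA, 0.1% PEG-400, 0.1% Triton X-100; enzyme and inhibitor preincubated 30 min at room temperature. Format one: 500 pM enzyme, 10 min reaction; format two: 5 pM enzyme, 18 hr reaction. Fluorescence read at 380 nm excitation/460 nm emission.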

Thrombin = Thrombin (Homo sapiens (Human), UniProt P00734); experiment: Selectivity screen of serine proteases, anti-target panel: Thrombin
Description: (§1) Compounds 11, 33, and 53 were evaluated in a selectivity screen of serine proteases.

Elastase = experiment: Selectivity screen of serine proteases, anti-target panel: Elastase
Description: as §1

FXa = FXa (Homo sapiens (Human), UniProt P00742); experiment: Selectivity screen of serine proteases, anti-target panel: FXa
Sequence of FXa (P00742 235-488): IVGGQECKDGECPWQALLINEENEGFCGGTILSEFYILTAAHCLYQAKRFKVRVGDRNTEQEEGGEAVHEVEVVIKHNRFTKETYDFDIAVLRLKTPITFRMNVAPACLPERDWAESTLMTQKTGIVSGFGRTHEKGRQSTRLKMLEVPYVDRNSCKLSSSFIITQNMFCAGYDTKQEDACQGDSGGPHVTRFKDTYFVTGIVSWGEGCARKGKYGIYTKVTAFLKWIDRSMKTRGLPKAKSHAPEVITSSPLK
Sequence of FXa (P00742 41-179 partner): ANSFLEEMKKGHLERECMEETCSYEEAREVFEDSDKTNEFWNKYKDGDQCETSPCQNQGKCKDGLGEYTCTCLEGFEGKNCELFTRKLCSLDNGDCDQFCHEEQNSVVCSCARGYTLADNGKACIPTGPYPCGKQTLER
Description: as §1

[2] = system: selected anti-target proteases; experiment: Selectivity screen of serine proteases (overall statement); details: none showed any inhibitory activity of the anti-target proteases
Description: as §1

Trypsin = experiment: Selectivity screen of serine proteases, anti-target panel: Trypsin
Description: as §1

[3] = Table 2, column head prints nM, ranges defined in μM

EC50 [1, 3] | EC50 ([1]; Table 3) | IC50 (Thrombin) | IC50 (Elastase) | IC50 (FXa) | IC50 (Trypsin) | Structure (SMILES) | Selectivity for pKal over selected anti-target proteases [2]
≤ 100 nM | 15 nM | > 10 µM | > 10 µM | > 10 µM | > 100 µM | Nc1nccc2cc(CCNC(=O)c3csc([C@@H]4C[C@@H](N)CN4C(=O)c4cn5cc(Cl)ccc5n4)n3)ccc12 [Compound 53, 2-((2S,4R)-4-amino-1-(6-chloroimidazo[1,2-a]pyridine-2-carbonyl)pyrrolidin-2-yl)-N-(2-(1-aminoisoquinolin-6-yl)ethyl)thiazole-4-carboxamide] | selective inhibitors of pKal
≤ 100 nM | 32 nM | > 10 µM | > 10 µM | > 10 µM | > 100 µM | CNC(=O)[C@H](CCCCNC(=N)N)NC(=O)c1csc([C@@H]2C[C@@H](N)CN2C(=O)c2cn3cc(Cl)ccc3n2)n1 [Compound 11, 2-((2S,4R)-4-amino-1-(6-chloroimidazo[1,2-a]pyridine-2-carbonyl)pyrrolidin-2-yl)-N—((S)-6-guanidino-1-(methylamino)-1-oxohexan-2-yl)thiazole-4-carboxamide] | selective inhibitors of pKal
